Results taken from ChEMBL document CHEMBL6177965, “Sealgamide: An Antitrypanosomal Lipopeptide Isolated from a Marine Okeania sp. Cyanobacterium” (J Nat Prod, 2025).

What was measured:
[1] = test system: Plasmodium falciparum; assay: Antimalarial activity against Plasmodium falciparum 3D7 infected in RBC incubated for 72 hrs by LDH assay; format: functional, organism-based; settings: 3D7, Erythrocyte
[2] = test system: HeLa; assay: Cytotoxicity against human HeLa cells assessed as inhibition of cell growth incubated for 72 hrs by MTT assay; format: functional, cell-based
[3] = test system: Trypanosoma brucei rhodesiense; assay: Antitrypanosomal activity against Trypanosoma brucei rhodesiense IL-1501 incubated for 69 hrs by Alamar blue staining based analysis; format: functional, organism-based; settings: IL-1501, 69 h

Row | IC50 [1] | IC50 [3] | SMILES | IC50 [2]
1 | > 25000 nM | 2900 nM | CCC[C@@H](C[C@@H](CC(=O)N(C)[C@@H](C(=O)N[C@H](C)C(=O)N[C@H](CC(C)C)C(=O)N(C)[C@@H](CC(C)C)C(=O)N[C@H](C(=O)N(C)[C@H](C(=O)N(C)[C@@H](CCC(N)=O)C(=O)N[C@@H](Cc1ccccc1)C(=O)N(C)[C@@H](CCC(N)=O)C(=O)N(C)[C@@H](Cc1ccc(OC)cc1)C(=O)O)C(C)C)[C@@H](C)O)[C@@H](C)CC)OC)OC | > 30000 nM
2 | 2100 nM | 650 nM | CCC[C@@H](C[C@@H](CC(=O)N(C)[C@@H](C(=O)N(C)[C@H](C)C(=O)N[C@H](CC(C)C)C(=O)N(C)[C@@H](CC(C)C)C(=O)N[C@H](C(=O)N(C)[C@H](C(=O)N(C)[C@@H](CCC(N)=O)C(=O)N[C@@H](Cc1ccccc1)C(=O)N(C)[C@@H](CCC(N)=O)C(=O)N(C)[C@@H](Cc1ccc(OC)cc1)C(=O)OC)C(C)C)[C@@H](C)O)[C@@H](C)CC)OC)OC | > 30000 nM
3 |  | 9 nM | N=C(N)c1ccc(OCCCCCOc2ccc(C(=N)N)cc2)cc1 [PENTAMIDINE] | 
